The record followed here is ChEMBL document CHEMBL1150736, “Potential inhibitors of platelet aggregation from plant sources, III” (1987).

Activity calls are given as the source filed them. No cut-off for these calls is given here.

Format in all cases: functional
Assay [1] relates to Platelet. The assay can be described thus: Antiplatelet activity against rat platelet rich plasma assessed as inhibition of arachidonic acid-induced platelet aggregation at 0.1 mg/ml pretreated 2 mins before arachidonic acid challenge.
The nature of assay [2]: Antiplatelet activity against rat platelet rich plasma assessed as inhibition of collagen-induced platelet aggregation pretreated 2 mins before collagen challenge.
The test system of assay [3] is Platelet. Put plainly: Antiplatelet activity against rat platelet rich plasma assessed as inhibition of arachidonic acid-induced platelet aggregation at 0.25 mg/ml pretreated 2 mins before arachidonic acid challenge.
Assay [4] concerns Platelet. The assay can be described thus: Antiplatelet activity against rat platelet rich plasma assessed as inhibition of ADP-induced platelet aggregation at 1 mg/ml pretreated 2 mins before ADP challenge.
Assay [5] concerns Platelet. The assay can be described thus: Antiplatelet activity against rat platelet rich plasma assessed as inhibition of arachidonic acid-induced platelet aggregation at 0.5 mg/ml pretreated 2 mins before arachidonic acid challenge.
In assay [6] the test system is Platelet. The assay can be described thus: Antiplatelet activity against rat platelet rich plasma assessed as inhibition of collagen-induced platelet aggregation at 0.25 mg/ml pretreated 2 mins before collagen challenge.
Assay [7] in a line: Antiplatelet activity against rat platelet rich plasma assessed as inhibition of arachidonic acid-induced platelet aggregation pretreated 2 mins before arachidonic acid challenge.
Assay [8] is described as follows: Antiplatelet activity against rat platelet rich plasma assessed as inhibition of ADP-induced platelet aggregation pretreated 2 mins before ADP challenge.
Assay [9] has as its system Platelet. Put plainly: Antiplatelet activity against rat platelet rich plasma assessed as inhibition of ADP-induced platelet aggregation at 0.5 mg/ml pretreated 2 mins before ADP challenge.
The subject of assay [10] is Platelet. The assay can be described thus: Antiplatelet activity against rat platelet rich plasma assessed as inhibition of collagen-induced platelet aggregation at 0.1 mg/ml pretreated 2 mins before collagen challenge.
Assay [11] relates to Platelet. The assay can be described thus: Antiplatelet activity against rat platelet rich plasma assessed as inhibition of collagen-induced platelet aggregation at 0.05 mg/ml pretreated 2 mins before collagen challenge.

For the molecule `CCOC(=O)c1ccc(O)c(O)c1`, the outcome in assay [1], in assay [3], in assay [4], in assay [5], in [6] and in assay [9] was Active. The figures for the Activity in assay [2], in assay [7] and in assay [8] were 1.4 mM, 5.5 ×10⁻⁴ M and 2.7 mM, respectively.
On to `COc1cccc(C(=O)O)c1OC`, for which the result in [3] and in [5] was inactive. Moreover, the result in assay [4] and in assay [6] was Active.
Turning to `O=C(O)c1cc(O)cc(O)c1`, the outcome in [4], in assay [5] and in [6] was Active.
For the molecule `COc1cc(OC)cc(C(=O)O)c1`, the outcome in assay [10], in assay [6] and in assay [9] was inactive.
Regarding `COC(=O)c1ccc(OC)c(OC)c1`, the result in assay [10], in assay [3], in [5] and in [6] was Active.
With `COc1ccc(C(=O)O)c(OC)c1`, the result in assay [4], in assay [5] and in [6] was Active.
As for `CCOc1ccc(C(=O)O)cc1OCC`, the outcome in [10], in assay [3] and in [6] was inactive. Further, the result in [4] and in [5] was Active.
With `COC(=O)c1ccc(O)c(O)c1`, the result in [3], in assay [4] and in assay [5] was Active.
Turning to `COC(=O)c1cc(O)cc(O)c1`, the outcome in assay [1], in [3], in [4], in assay [5] and in [6] was Active.
As to `O=C(O)c1cc(O)ccc1O`, the outcome in assay [4], in assay [5] and in [6] was Active.
Regarding `COc1ccc(C(=O)O)cc1OC`, the result in [3] and in assay [9] was inactive.
For the molecule `CCOC(=O)c1cc(O)cc(O)c1`, the outcome in [4] and in assay [5] was Active.
With `COc1cccc(C(=O)O)c1O`, the outcome in assay [4] and in assay [5] was Active.
Take `O=C(O)c1cccc(O)c1O`: the result in assay [3], in assay [4], in [5] and in [6] was Active.
With `CCOC(=O)c1cccc(O)c1O`, the result in assay [3], in [4] and in [5] was Active.
Take `COC(=O)c1ccc(O)c(OC)c1`: the outcome in [10], in assay [3], in assay [4], in assay [5] and in [6] was Active.
For the molecule `COc1ccc(C(=O)O)c(O)c1`, the result in assay [5] and in assay [6] was Active.
Regarding `CCOC(=O)c1ccc(O)cc1O`, the outcome in assay [3], in assay [4] and in assay [5] was Active.
Regarding `COC(=O)c1cc(OC)cc(OC)c1`, the outcome in assay [5] and in assay [6] was Active.
As to `COc1cc(CC(=O)O)ccc1O`, the result in assay [3] and in assay [4] was Active.
In the case of `COc1cc(C(=O)O)ccc1O`, the result in assay [3] was inactive. Moreover, the outcome in assay [4], in assay [5] and in assay [6] was Active.
Regarding `O=C(O)c1c(O)cccc1O`, the result in assay [5] and in assay [6] was Active.
On to `COC(=O)c1ccc(OC)cc1O`, for which the outcome in [3] and in [9] was inactive. Also, in [6], the result was Active.
`O=C(O)c1ccc(O)cc1O`: the outcome in assay [1], in assay [10], in [3], in assay [4], in [5] and in [6] was Active.
On to `COC(=O)c1cccc(O)c1O`, for which the outcome in assay [3], in assay [4] and in [5] was Active.
As to `COc1ccc(O)c(C(=O)O)c1`, the result in assay [3] was inactive. The result in [4] and in assay [6] was Active.
In the case of `COc1ccc(C(=O)O)cc1O`, in [3], the outcome was inactive. For the same molecule, the outcome in assay [4] and in assay [5] was Active.
As for `O=C(O)c1ccc(O)c(O)c1` [PROTOCATECHUIC ACID], the Activity in assay [2] is 1.6 mM; in [7], 3.2 mM; in [8] it was 6.5 mM. The outcome in assay [4], in [5] and in assay [6] was Active.
For the molecule `COC(=O)c1ccc(O)cc1O`, the outcome in assay [3], in assay [4] and in [5] was Active.
Consider `CC(=O)Oc1ccccc1C(=O)O` [ASPIRIN], for which the result in [1], in assay [3], in [4], in assay [5] and in assay [6] was Active. Also, the Activity in [2] is 1.4 mM; in [7] it was 2.8 ×10⁻⁴ M; in assay [8] it was 5.6 mM. The outcome in [11] was inactive.
As for `COc1cccc(OC)c1C(=O)O`, in [3], the outcome was inactive. For the same molecule, the outcome in assay [6] was Active.
